Literature values as cited in patent publication US11555049B2, “Method for separation and purification of n-acetylglucosamine” (JIANGSU HARVERS BIOTECH CO., LTD., priority 2020, dated 2023).
In brackets after ≈: the same amount, converted by molar mass.

solubility in water (0° C. water): 140 mg/mL (≈ 633 mM)
solubility in organic solvents (organic solvents such as ethanol and propanol): insoluble
SMILES: CC(=O)N[C@H]1C(O)O[C@H](CO)[C@@H](O)[C@@H]1O (some centres unmarked) [GlcNAc, N-acetyl-glucosamine]
